Tests used:
u-PAR [1] = assay: u-PAR protein level in U937 cells by cross-linking of detergent phase to 125I-ATF; assay type: cell-based, human; details: increasing time of treatment, PMA 150 nM, dibuturyl cAMP 1 mM
u-PAR mRNA [2] = assay: Northern blot of u-PAR mRNA in A549 cells; assay type: cell-based, human; details: 48 hours, PMA 150 nM, mEGF 20 ng/ml, TGF-β1 7.5 ng/ml, dexamethasone 10^−6 M
Description: (§1) The cells were seeded at 0.5×10^6/ml in DMEM and grown to confluence, washed in PBS^+ and kept under serum-free conditions for 48 hours followed by no additions (1, 6), by addition of Dex (10^−6M) (2, 7) PMA (150 nM) (3, 8) mEGF (20 ng/ml) (4, 9) and TGF-β1, (7.5 ng/ml) (5, 10) for 48 hours. After incubation, both the adherent and the non-adherent cells were collected, pooled, and total RNA was isolated as described in Materials and Methods. For the Northern blot analyses, 30 μg of total RNA were electrophoresed in 1.5% agarose gels under denaturing conditions and blotted onto a nitrocellulose filter. The filters were hybridized to a random primed labeled u-PAR cDNA probe. The positions of the ribosomal RNA in the Northern are indicated to the left.
(§2) The human histiocytic lymphoma cell line U937 (American Type Culture Collection (ATCC), CRL 1593) was obtained from Dr. A. Fattorssi (Research Lab. of Aeronautica Militare, Rome, Italy) and cultured in RPMI 1640 medium with 10% heat inactivated fetal calf serum and 2 mM L-glutamine at a density of 0.5×10^6 cells/ml at the onset of the experiment. The medium was supplemented with 100 units/ml of penicillin and 25 ug/ml streptomycin. The human rhabdomyosarcoma (RD) and adenocarcinoma (A549) cell lines (ATCC CCL 136 and ATCC CCl 185, respectively) were obtained from Flow laboratories, Irvine, U.K., and kept in Dulbecco's modified Eagle's medium supplemented with 10% fetal calf serum until confluency, as described earlier (Lund et al., 1988). The cell lines were tested for and found free from Mycoplasma infection. PMA and the other compounds were present during different time periods and in varying concentrations, as indicated for each experiment. The adherent cells were released by a rubber policeman, and harvested for RNA analysis as described (Mayer et al., 1988).
(§3) Total cellular RNA was isolated from the cells as described by Chomczynsky and Sacchi (1987). The RNA was analyzed by hybridizing Northern blots as described (Lund et al., 1987), except that random primed labelled plasmid probes were used. […]

u-PAR mRNA [3] = assay: Northern blot of u-PAR mRNA in U937 cells; assay type: cell-based, human; details: 150 nM PMA, time course
Description: The cells were seeded at 0.5×10^6/ml in RPMI 1640 medium containing 10% FCS, and incubated with 150 nM PMA for the indicated number of hours. After the incubation both the adherent and the non-adherent cells were collected, pooled, and total RNA was isolated as described in Materials and Methods. For the Northern blot analyses, 30 μg of total RNA were electrophoresed in 1.5% agarose gels under denaturing conditions and blotted onto a nitrocellulose filter. The filters were hybridized to a random primed labelled u-PAR cDNA probe (A), or a β-actin cDNA probe (B). The positions of the ribosomal RNA in the Northern blot are indicated to the left.
The human histiocytic lymphoma cell line U937 (American Type Culture Collection (ATCC), CRL 1593) was obtained from Dr. A. Fattorssi (Research Lab. of Aeronautica Militare, Rome, Italy) and cultured in RPMI 1640 medium with 10% heat inactivated fetal calf serum and 2 mM L-glutamine at a density of 0.5×10^6 cells/ml at the onset of the experiment. The medium was supplemented with 100 units/ml of penicillin and 25 ug/ml streptomycin. […]
as §3

u-PAR mRNA [4] = assay: Northern blot of u-PAR mRNA in RD cells; assay type: cell-based, human; details: 48 hours, PMA 150 nM, mEGF 20 ng/ml, TGF-β1 7.5 ng/ml, dexamethasone 10^−6 M
Description: as §1, §2, §3

U937 cells = assay: Fate of receptor-bound ligands on U937 cells (internalization and degradation); assay type: cell-based, human
uPAR-bound u-PA = uPAR-bound u-PA (Homo sapiens, UniProt P00749); assay type: cell-based; details: peptide 0.5 mg/ml 30 minutes preincubation; PAI-1 0.9 or 4.5 nM
Description: U937 cells were grown in suspension in RPMI 1640 medium supplemented with 5% heat-inactivated fetal calf serum. PMA-stimulation of U937 cells was performed at a cell density of […] cells/ml with 150 nM PMA for 4 days. The adherent cell population was harvested with a rubber scraper and resuspended in PBS. […] The effect of PAI's on the activity of cell-bound u-PA was determined by the addition of varying concentrations of PAI-1 (0.18-18.4 nM) or PAI-2 (1.13-56.7 nM) to the incubations at the same time as the addition of plasminogen. Curves were then constructed of plasmin concentration against time. […] [pln]∞ was calculated from the relationship: [[…]]0) equation.2 where Δ[pln]0 is the initial rate of plasmin generation which was determined in control incubations in the absence of inhibitors. […] Association rate constants (second-order rate constants) were calculated from the slope of the line of double reciprocal plots of kapp against inhibitor concentration.

u-PAR [5] = molecular target: T1, u-PAR (Homo sapiens, UniProt Q03405); assay: Release of 125I-labelled DFP-u-PA from PMA-stimulated U937 cells by phospholipases; assay type: cell-based; details: phospholipases >5 μg/ml, compared to blind sample
u-PAR [6] = molecular target: T1, u-PAR; assay: Chemical cross-linking of 125I-ATF to purified u-PAR; assay type: binding; details: unlabelled reagent 100 nM, u-PAR approx. 1 nM, 125I-ATF approx. 1 nM
Description: B) Affinity column eluate was diluted to yield an approximate concentration of u-PAR of 1 nM during the assay. The samples were preincubated alone (lane 2) or in the presence of the following unlabelled reagents at a concentration of 100 nM: bovine serum albumin (lane 3), t-PA (lane 4), plasminogen (lane 5), murine epidermal growth factor (lane 6), ATF (lane 7), active 54 kD u-PA (lane 8), DFP-inactivated 54 kD u-PA (lane 9). After preincubation for 15 min at room temperature, ^125I-labelled ATF (approximately 1 nM) was added, followed by incubation for 1 hour at 4° C. After incubation, chemical cross-linking was performed with DSS, after which the samples were analyzed by SDS-PACE on a 6-16% gradient gel under non-reducing conditions and autoradiography. […] Electrophoretic mobilities of molecular weight standard proteins are inducated (kD).
Cross-linking of u-PAR in complex mixtures or purified fractions to ^125I-labelled ATF was performed as described for solubilized receptor (Nielsen et al., 1988), except that 2 mM disuccinimidylsuberate (DSS) was used for cross-linking. Cross-linking of purified u-PAR to DFP-treated u-PA for analysis by SDS-PAGE and silver-staining was performed in the same manner, except that non-labelled DFP-treated u-PA was used as the ligand.

HT-1080 cells = assay: Plasmin release from plasmin-loaded HT-1080 cells; assay type: cell-based, human
Description: FIG. 24. Plasmin release from HT-1080 cells into serum-free and serum-containing media. Confluent layers of HT-1080 cells were first loaded with plasmin by incubation for 1 hour at 37° C. in serum-free MEM medium (0.5 ml) containing human plasmin (0-5 μg/ml). After rinsing the cell layers three times, they were incubated for 2 hours at 37° C. with either serum-free medium (∘ - - - ∘), medium containing 10% heat-inactivated and plasminogen-depleted fetal calf serum (● - - - ●), or the latter with tranexamic acid (100 μM) (▪ - - - ▪). Plasmin was then assayed in the cell-bound fraction (A) and the media (B). At the time of transfer to new media, there was approximately 28 ng of plasmin bound to the cells from the pretreatment with 2.5 μg of plasmin/well.
In the Examples concerning plasmin binding to cells from medium, human plasmin (approximately 18 CU/mg; Kabi Diagnostica, Stockholm, Sweden) was added to the cultures at final concentrations of 0-5 μg/ml. The cells were incubated for 3 hours at 37° C. before assay of cell-bound and supernatant plasmin (see below). For plasmin release experiments, cells were loaded for 1 hour at 37° C. with 0-5 μg/ml plasmin in serum-free medium, then rinsed three times with MEM.
Plasmin bound to the cell layer was recovered and assayed as follows. After harvest of culture medium, the cells were rinsed three times with PBS (plasmin assays of further rinses were negative); then the bound plasmin was specifically eluted (Miles, L. A., and E. F. Plow, “Binding and activation of plasminogen on the platelet surface”, J. Biol. Chem. 260: 4303-4311, 1985) with a solution of 1 mM tranexamic acid in the same rinsing solution (150 μl/well). Plasmin activity was assayed in eluate samples (50 μl) as above with an incubation time of 3 hours at 37° C. Tranexamic acid at 1 mM had no effect on the thioesterase activity of plasmin in these assays.

cultured cells = details: plasmin, some cell types (Burtin and Fondaneche, 1988); cited from earlier work

Question: Which “u-PAR protein level (signal of 125I-ATF cross-linked to u-PAR)” value (u-PAR [1]) does the source give for CCCCCCCCCCCCCC(=O)O[C@@H]1[C@@H](C)[C@@]2(O)[C@@H](C=C(CO)C[C@]3(O)C(=O)C(C)=C[C@@H]23)[C@@H]2C(C)(C)[C@]12OC(C)=O [PMA, Phorbol 12-myristate 13-acetate] here?
Answer: increase in the strength of signal

Question: What about the “u-PAR mRNA level” value (u-PAR mRNA [2]) of the same molecule?
Answer: increased

Question: And the “u-PAR mRNA level” value (u-PAR mRNA [3])?
Answer: maximal effect after 24 hours

Question: And the “u-PAR mRNA level” value (u-PAR mRNA [4])?
Answer: increased

Question: For CCN(CC)CCCC(C)Nc1ccnc2cc(Cl)ccc12 (stereo not shown) [chloroquine], which “Degradation of u-PA:PAI-1 ligand” value (U937 cells) is on record?
Answer: 20%

Question: With “Gly-Arg-Gly-Asp-Ser (GRGDS; printed: Gly-Arg-Gly-Asp-Ser)” as the molecule, how does the “Rates of inhibition of cell-bound u-PA by PAI-1 in the presence or absence of the peptide” value (uPAR-bound u-PA) read?
Answer: the same

Question: Which results are given for “TGF-β1: porcine transforming growth factor β-type 1”?
Answer: u-PAR mRNA level (u-PAR mRNA [2]): increased; u-PAR mRNA level (u-PAR mRNA [4]): increased

Question: Which “Liberation of 125I-labelled DFP-u-PA from the cell surface” value (u-PAR [5]) does the source give for Trypsin here?
Answer: efficiently released all cell surface associated radioactivity

Question: Which “Competition for binding and cross-linking of 125I-labelled ATF to purified u-PAR” value (“Competition” for short) (u-PAR [6]) does the source give for “bovine serum albumin: unrelated control protein” here?
Answer: no competition

Question: Which “u-PAR mRNA level” value (u-PAR mRNA [2]) does the source give for “epidermal growth factor: murine epidermal growth factor” here?
Answer: increased

Question: And the “Competition” value (u-PAR [6])?
Answer: no competition

Question: What about the “u-PAR mRNA level” value (u-PAR mRNA [4]) of the same molecule?
Answer: increased

Question: Which “Competition” value (u-PAR [6]) does the source give for t-PA: tissue-type plasminogen activator here?
Answer: no competition

B1: plasmin: human plasmin (Kabi Diagnostica) (protein, UniProt P00747 20-580; P00747 581-810, looked up)
Plasmin heavy chain A: EPLDDYVNTQGASLFSVTKKQLGAGSIEECAAKCEEDEEFTCRAFQYHSKEQQCVIMAENRKSSIIIRMRDVVLFEKKVYLSECKTGNGKNYRGTMSKTKNGITCQKWSSTSPHRPRFSPATHPSEGLEENYCRNPDNDPQGPWCYTTDPEKRYDYCDILECEEECMHCSGENYDGKISKTMSGLECQAWDSQSPHAHGYIPSKFPNKNLKKNYCRNPDRELRPWCFTTDPNKRWELCDIPRCTTPPPSSGPTYQCLKGTGENYRGNVAVTVSGHTCQHWSAQTPHTHNRTPENFPCKNLDENYCRNPDGKRAPWCHTTNSQVRWEYCKIPSCDSSPVSTEQLAPTAPPELTPVVQDCYHGDGQSYRGTSSTTTTGKKCQSWSSMTPHRHQKTPENYPNAGLTMNYCRNPDADKGPWCFTTDPSVRWEYCNLKKCSGTEASVVAPPPVVLLPDVETPSEEDCMFGNGKGYRGKRATTVTGTPCQDWAAQEPHRHSIFTPETNPRAGLEKNYCRNPDGDVGGPWCYTTNPRKLYDYCDVPQCAAPSFDCGKPQVEPKKCPGR
Plasmin light chain B: VVGGCVAHPHSWPWQVSLRTRFGMHFCGGTLISPEWVLTAAHCLEKSPRPSSYKVILGAHQEVNLEPHVQEIEVSRLFLEPTRKDIALLKLSSPAVITDKVIPACLPSPNYVVADRTECFITGWGETQGTFGAGLLKEAQLPVIENKVCNRYEFLNGRVQSTELCAGHLAGGTDSCQGDSGGPLVCFEKDKYILQGVTSWGLGCARPNKPGVYVRVSRFVTWIEGVMRNN
modifications: plasmin
Question: What does the source list for B1?
Answer: Plasmin activity recovered from the cells (HT-1080 cells; 2 hours 37° C., 10% serum-containing medium): 40%; Plasmin activity remaining bound to cells (HT-1080 cells; 2 hours 37° C., fresh serum-free medium): approximately 40%; Plasmin activity detected in the medium (HT-1080 cells; serum-containing medium): about 11%; Plasmin activity detected in the medium (HT-1080 cells; serum-free medium): 60%; Kd (cultured cells): 50 nM

Reference: patent publication US20030027981A1, “Urokinase-type plasminogen activator receptor” (priority 1989, published 2003)
